Data on 7 compounds can be found in patent US6392045B1, “9-azobicyclo[3.3.1] non-2-ene derivatives as cholinergic ligands at nicotinic ACH receptors” (NeuroSearch A/S, priority 1997, dated 2002).

The structures appear in SMILES notation.

By melting point is commonly meant the temperature of the solid-liquid transition. As usually defined, the IC50 is the midpoint of a concentration-inhibition curve.

In data set [1] the target is nAChR formed by the α7 subunit isoform (Rattus norvegicus, UniProt Q05941). Briefly: biochemical. The data set is classed as binding. To be noted: read-out: 3H-α-bungarotoxin IC50.
Data set [2] has as its target nAChRs comprised of α4 and β2 subunits (Rattus norvegicus, UniProt P09483+P12390). Kind of data set: In vitro inhibition of 3H-cytisine binding. The procedure:
In Vitro Inhibition of ^3H-cytisine Binding
The predominant subtype with high affinity for nicotine is comprised of α4 and β2 subunits. nAChRs of the latter type can selectively be labelled by the nicotine agonist ^3H-cytisine.
Tissue Preparation: Preparations are performed at 0-4° C. unless otherwise indicated. […] The homogenate is centrifuged at 27,000×g for 10 min. The supernatant is discarded and the pellet is resuspended in fresh buffer and centrifuged a second time. The final pellet is resuspended in fresh buffer (35 ml per g of original tissue) and used for binding assays.
Assay: Aliquots of 500 μl homogenate are added to 25 μl of test solution and 25 μl of ^3H-cytisine (1 nM, final concentration), mixed and incubated for 90 min at 2° C. Non-specific binding is determined using (−)-nicotine (100 μM, final concentration). After incubation the samples are added 5 ml of ice-cold buffer and poured directly onto Whatman GF/C glass fibre filters under suction and immediately washed with 2×5 ml ice-cold buffer. The amount of radioactivity on the filters is determined by conventional liquid scintillation counting. Specific binding is total binding minus non-specific binding.

In data set [3] the target is T1, α4β2 subtype of nicotinic receptors (neuronal nicotinic receptors) (Rattus norvegicus, UniProt P09483+P12390).
T1 construct: The forebrain (÷cerebellum) from a male Wistar rat (150-250 g) is homogenized; from tissue; host or cells: rat forebrain (without cerebellum) homogenate (male Wistar)
Kind of data set: In vitro inhibition of 3H-epibatidin binding. The procedure:
In Vitro Inhibition of ^3H-epibatidin Binding
The high affinity binding site for ^3H-epibatidin is most certainly binding to the α4β2 subtype of nicotinic receptors. The identity of the low affinity site is still unknown; does it represent a second nicotinic receptor or a second site in the same receptor.
Tissue preparation: Preparations are performed at 0-4° C. unless otherwise indicated. The forebrain (÷cerebellum) from a male Wistar rat (150-250 g) is homogenized for 10-20 sec in 20 ml Tris, HCl (50 mM, pH 7.4) using an Ultra-Turrax homogenizer. The tissue suspension is centrifuged at 27,000×g for 10 min. The supernatant is discarded and the pellet is washed three times by centrifugation at 27,000×g for 10 min in 20 ml fresh buffer, and the final pellet is resuspended in fresh buffer (400 ml per g of original tissue) and used for binding assays.
Assay: Aliquots of 2.0 ml homogenate are added to 0.100 ml of test solution and 0.100 ml of ^3H-epibatidin (0.3 nM, final concentration), mixed and incubated for 60 min at room temperature. Non-specific binding is determined using (−)-nicotine (30 μM, final concentration). After incubation the samples are poured directly onto Whatman GF/C glass fibre filters (presoaked in 0.1% PEI for at least 20 min) under suction and immediately washed with 2×5 ml ice-cold buffer. The amount of radioactivity on the filters is determined by conventional liquid scintillation counting. Specific binding is total binding minus non-specific binding.

The conditions of data set [4]: approximate potency, times that of morphine; cited from earlier work.

T1 sequence (P09483 31-630): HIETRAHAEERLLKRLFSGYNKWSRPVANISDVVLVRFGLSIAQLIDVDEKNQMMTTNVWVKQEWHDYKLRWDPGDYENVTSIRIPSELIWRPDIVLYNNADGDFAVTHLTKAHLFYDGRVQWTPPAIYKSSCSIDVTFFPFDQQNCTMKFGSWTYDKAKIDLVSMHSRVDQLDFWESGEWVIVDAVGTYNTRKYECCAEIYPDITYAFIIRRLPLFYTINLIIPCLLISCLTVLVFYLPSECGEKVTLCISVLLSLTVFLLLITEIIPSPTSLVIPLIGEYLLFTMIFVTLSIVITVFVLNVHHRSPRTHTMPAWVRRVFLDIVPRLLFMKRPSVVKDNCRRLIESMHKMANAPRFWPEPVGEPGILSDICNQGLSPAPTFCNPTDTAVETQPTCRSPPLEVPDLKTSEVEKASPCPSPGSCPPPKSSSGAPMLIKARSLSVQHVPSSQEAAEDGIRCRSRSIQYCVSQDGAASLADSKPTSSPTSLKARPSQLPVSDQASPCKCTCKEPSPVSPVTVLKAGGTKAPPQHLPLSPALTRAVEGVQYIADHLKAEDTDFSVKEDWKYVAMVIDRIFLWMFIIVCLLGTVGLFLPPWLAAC
T1 sequence (P12390 25-500): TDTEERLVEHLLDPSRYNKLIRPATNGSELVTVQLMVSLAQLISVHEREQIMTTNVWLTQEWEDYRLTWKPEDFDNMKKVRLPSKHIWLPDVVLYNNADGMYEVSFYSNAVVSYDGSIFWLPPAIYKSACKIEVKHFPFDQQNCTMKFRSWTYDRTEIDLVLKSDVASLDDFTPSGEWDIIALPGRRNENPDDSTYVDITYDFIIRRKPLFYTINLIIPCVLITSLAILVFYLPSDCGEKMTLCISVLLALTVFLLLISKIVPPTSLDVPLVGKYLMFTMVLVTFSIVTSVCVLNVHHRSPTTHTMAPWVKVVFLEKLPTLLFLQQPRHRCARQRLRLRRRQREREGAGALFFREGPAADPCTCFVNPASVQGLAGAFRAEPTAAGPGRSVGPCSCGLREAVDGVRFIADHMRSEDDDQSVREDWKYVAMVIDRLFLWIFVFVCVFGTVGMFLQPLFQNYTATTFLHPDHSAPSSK
nAChRs comprised of α4 and β2 subunits, sequence (P09483 31-630): as the sequence (P09483 31-630) above
nAChRs comprised of α4 and β2 subunits, sequence (P12390 25-500): as the sequence (P12390 25-500) above
nAChR formed by the α7 subunit isoform, sequence (Q05941 23-502): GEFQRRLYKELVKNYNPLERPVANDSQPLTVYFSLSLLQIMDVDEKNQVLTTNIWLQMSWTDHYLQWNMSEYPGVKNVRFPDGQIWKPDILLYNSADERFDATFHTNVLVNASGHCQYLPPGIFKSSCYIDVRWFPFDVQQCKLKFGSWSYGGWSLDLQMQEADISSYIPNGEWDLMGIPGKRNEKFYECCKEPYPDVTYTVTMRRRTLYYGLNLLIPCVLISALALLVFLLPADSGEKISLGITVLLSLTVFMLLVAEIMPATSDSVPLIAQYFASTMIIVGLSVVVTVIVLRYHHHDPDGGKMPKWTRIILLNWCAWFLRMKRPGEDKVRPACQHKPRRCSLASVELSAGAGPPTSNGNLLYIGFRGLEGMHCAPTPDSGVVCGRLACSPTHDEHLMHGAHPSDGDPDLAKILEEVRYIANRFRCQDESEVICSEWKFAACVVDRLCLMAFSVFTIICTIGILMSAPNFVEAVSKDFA

As to `CC(=O)Nc1cccc(C2=CC3CCCC(C2)N3C)c1.CC(=O)O` (racemic) [Compound 2c, (±)-3-(3-Acetamidophenyl)-9-methyl-9-azabicyclo[3.3.1]non-2-ene Acetic Acid Salt], the melting point is 59.9 to 63.4 °C. The IC50 in data set [1] was found to be 1.7 µM. Moreover, the IC50 in data set [2] was determined as 85 µM. For the same compound, in data set [3], the IC50 is 290 µM.
The corresponding values for `CCN1C2C=C(c3cccnc3)CC1CCC2.O=C(O)/C=C/C(=O)O` (racemic) [Compound 6a, (±)-9-Ethyl-3-(3-pyridyl)-9-azabicyclo[3.3.1]non-2-ene Fumaric Acid Salt] are 193 to 195 °C, 5.8 µM, 1.8 µM and 1.7 µM.
In the same order, the values of `CC(=O)C1=CC2CCCC(C1)N2C.O=C(O)/C=C/C(=O)O` (racemic) [Compound 2d, (±)-3-Acetyl-9-methyl-9-azabicyclo[3.3.1]non-2-ene Fumaric Acid Salt] are 149 to 151 °C, 4.2 µM, 0.59 µM and 1.1 µM.
Turning to `Clc1ccc(C2CC3CCC2N3)cn1` (stereo not shown) [Epibatidine], the “analgesic potency relative to morphine” value in data set [4] was about 500 times.
The compound `CN1C2C=C(c3ccoc3)CC1CCC2.O=C(O)/C=C/C(=O)O` (racemic) [Compound 4c, (±)-3-(3-Furyl)-9-methyl-9-azabicyclo[3.3.1]non-2-ene Fumaric Acid Salt] came in with a melting point of 167 to 174 °C. Besides, in data set [1], the IC50 was found to be 0.66 µM. In data set [2], this compound showed an IC50 of 2 µM. Moreover, in data set [3], the IC50 was found to be 5 µM.
The corresponding values for `CN1C2C=C(c3cncnc3)CC1CCC2.O=C(O)/C=C/C(=O)O` (racemic) [Compound 1b, (±)-9-Methyl-3-(5-pyrimidyl)-9-azabicyclo[3.3.1]non-2-ene Fumaric Acid Salt] are 198 to 202 °C, 1.6 µM, 0.078 µM and 0.052 µM.
As to `CN1C2C=C(c3cccc([N+](=O)[O-])c3)CC1CCC2.O=C(O)/C=C/C(=O)O` (racemic) [Compound 5c, (±)-9-Methyl-3-(3-nitrophenyl)-9-azabicyclo[3.3.1]non-2-ene Fumaric Acid Salt], the melting point lay within 133 to 144 °C. In data set [1], the IC50 turned out to be 2.2 µM. The same compound returned a half-maximal inhibitory concentration (IC50) in data set [2] of 2.7 µM. The same compound registered an IC50 in data set [3] of 3.9 µM.
